Reference: US8481011B2, “Use of polyunsaturated compounds as whitening agents” (Pierre Fabre Dermo-Cosmetique, priority 2005, dated 2013)

Key:
Assay type in all cases: cell-based
[1] = system: BDV II murine keratinocytes; assay: MTT cellular respiration toxicity test on BDV II keratinocytes; conditions: for % MTT / IC50: BDV II murine keratinocytes; for % MTT: concentration 10 μM, cell viability; for IC50: toxicity; for toxicity ranking on BDV II keratinocytes: ranking in words, viability according to concentration
Description: (§1) The objective of these tests is to measure the toxicity of the new retinoids on keratinocyte and melanocyte cells.
(§2) The method used is a cellular respiration test with the MTT (thiazolile blue) in order to assess cells that are still living.
(§3) The MTT test gives a cellular respiration index; this involves a substrate of dehydrogenases in general and dehydrogenase succinate in particular. The MTT, yellow, partially soluble in water, is reduced in a violet compound, insoluble in water, but soluble in organic solvents (DMSO).
(§4) Prepare a 12 mM solution (5 mg/ml) of MTT in water or the culture medium.
(§5) Dilute this solution to 1:10 in the supernatant fluid or suspension of cells (final MTT 1.2 mM or 0.5 mg/ml), then leave to incubate for 3 hours at 37° C.
(§6) Aspirate the supernatant fluid, the dissolve the violet crystals of formazan MTT in DMSO.
(§7) Read the optical density of the solution at 550 nm (dilute beforehand as required).
(§8) Calibration line: MTT formazan 0-200 μM.

B16 murine melanocytes [2] = assay: MTT cellular respiration toxicity test on B16 melanocytes; conditions: for IC50: toxicity; for % MTT: concentration 10 μM, cell viability
Description: as §1, §2, §3, §4, §5, §6, §7, §8

B16 murine melanocytes [3] = assay: Study of depigmenting activity (melanin dosage); conditions: at infratoxic doses, in words
Description: The objective of these tests is to measure the depigmenting activity of new retinoids according to their concentration.
The melanin is dosed according to the method described by S. Besson et al., Dermatology Archives. 133:331-336 (1997)′.
Digestion plug: 100 mM NaCl, to mm-Tri-HCl, 1% SDS, 50 mM EDTA, pH 8.
For 50 ml: 292 mg NaCl, 299 mg tris acid, 73 mg tris base, 931 mg EDTA disodium dehydrate, 500 mg SDS, adjust pH (≈5.5) to 8.0 with concentrated NaOH.
K proteinase 10 mg/ml in the digestion plug.
Prepare tubes containing synthetic melanin at concentrations of between 2.5 and 80 μg/ml in the DMSO.
For the cells, determine the protein concentration beforehand, centrifuge in 2 ml tubes and remove the supernatant.
In 2 ml tubes containing a cell remainder, add 300 μl of digestion buffer and 3 μl of K proteinase.
Incubate for 2 hours at 50° C., then a night at 37° C.
Top up the volume to 1 ml with water, then sound test.
Centrifuge for 10 minutes at 20,000 g, drain off all the supernatant (clear) then dissolve the dry melanin remainder in 500-1000 μl of DMSO.
Measure the absorbency at 375 nm and check the spectrum.

Compound | % MTT [1] [%] | IC50 ([1]; Mus musculus, Keratinocyte) [µM] | IC50 (B16 murine melanocytes [2]; Mus musculus, Melanocyte) [µM] | % MTT (B16 murine melanocytes [2]) [%] | depigmenting activity (melanin) (B16 murine melanocytes [3]) | toxicity ranking on BDV II keratinocytes [1] | IC50 [1] [µM] | IC50 (B16 murine melanocytes [2]) [µM]
CC1=C(/C=C/C(C)=C/C=C/C(C)=C/C(=O)OC(C)(C)C)C(C)(C)CCC1=O [Example 3, tert-butylic ester of (2E,4E,6E,8E)-3,7-dimethyl-9-(2,6,6-trimethyl-3-oxo-cyclohex-1-enyl)-nona-2,4,6,8-tetraenoic acid] | 85 | 60 | 30 | 80 | net depigmenting efficacy promotes | – | – | –
CC(=O)OC1CCC(C)(C)C(/C=C/C(C)=C/C=C/C(C)=C/C(=O)OC(C)(C)C)=C1C (centres unmarked) [Example 8, tert-butylic ester of (2E,4E,6E,8E)-9-[3-(3-acetoxy)-2,6,6-trimethyl-cyclohex-1-enyl]-3,7-dimethyl-nona-2,4,6,8-tetraenoic acid] | 82 | > 100 | 60 | 82 | net depigmenting efficacy promotes | least toxic | – | –
COC(=O)/C=C(C)/C=C/C=C(C)/C=C/C1=C(C)C(=O)CCC1(C)C [Example 5, Methylic ester of (2E,4E,6E,8E)-9-[3-(3-oxo)-2,6,6-trimethyl-cyclohex-1-enyl]-3,7-dimethyl-nona-2,4,6,8-tetraenoic acid] | 59 | – | – | 86 | net depigmenting efficacy promotes | then examples 5 and 6 | 15 | 60
CC(=O)OC/C=C(C)/C=C/C=C(C)/C=C/C1=C(C)C(=O)CCC1(C)C [Example 11, (2E,4E,6E,8E)-9-[3-(3-oxo)-2,6,6-trimethyl-cyclohex-1-enyl]-3,7-dimethyl-nona-2,4,6,8-tetraenyl acetate] | 60 | 30 | 70 | 86 | – | – | – | –
CC1=C(/C=C/C(C)=C/C=C/C(C)=C/C(=O)O)C(C)(C)CCC1 [RA, Retinoic acid, reference compound] | 40 | 3 | 10 | 50 | – | – | – | –
CC1=C(/C=C/C(C)=C/C=C/C(C)=C/C(=O)OC(C)(C)C)C(C)(C)CCC1O (centres unmarked) [Example 4, tert-butylic ester of (2E,4E,6E,8E)-9-(3-hydroxy-2,6,6-trimethyl-cyclohex-1-enyl)-3,7-dimethyl-nona-2,4,6,8-tetraenoic acid] | 84 | 70 | 20 | 62 | – | – | – | –
CC1=C(/C=C/C(C)=C/C=C/C(C)=C/C(=O)O)C(C)(C)CCC1=O [Example 405, 4-oxoretinoic acid] | 78 | – | – | 76 | – | – | > 100 | > 100
CC1=C(/C=C/C(C)=C/C=C/C(C)=C/C(=O)O)C(C)(C)CCC1O (centres unmarked) [Example 7, (2E,4E,6E,8E)-9-[3-(3-hydroxy)-2,6,6-trimethyl-cyclohex-1-enyl]-3,7-dimethyl-nona-2,4,6,8-tetraenoic acid] | 86 | > 100 | 35 | 69 | – | least toxic | – | –
